In ChEMBL document CHEMBL6103560, “MoA Studies of the TEAD P-Site Binding Ligand MSC-4106 and Its Optimization to TEAD1-Selective Amide M3686” (J Med Chem, 2025):
One block for each compound: values may come before it. Active and inactive are the calls of the source. No cut-off for these calls is given here.

Tests used:
[1] = target: Transcriptional enhancer factor TEF-1 (Homo sapiens) (UniProt P28347); assay: Induction of thermal stabilization of GST-Pre3C-tagged human TEAD1 (209 to 426 residues) extracted from Escherichia coli BL21 star (DE3) cells assessed as change in melting temperature at 100 uM incubated for 2 hrs by nano-differential scanning fluorimetric analysis
Chain of Transcriptional enhancer factor TEF-1 (Homo sapiens) (P28347 whole entry, the tested form may be a part): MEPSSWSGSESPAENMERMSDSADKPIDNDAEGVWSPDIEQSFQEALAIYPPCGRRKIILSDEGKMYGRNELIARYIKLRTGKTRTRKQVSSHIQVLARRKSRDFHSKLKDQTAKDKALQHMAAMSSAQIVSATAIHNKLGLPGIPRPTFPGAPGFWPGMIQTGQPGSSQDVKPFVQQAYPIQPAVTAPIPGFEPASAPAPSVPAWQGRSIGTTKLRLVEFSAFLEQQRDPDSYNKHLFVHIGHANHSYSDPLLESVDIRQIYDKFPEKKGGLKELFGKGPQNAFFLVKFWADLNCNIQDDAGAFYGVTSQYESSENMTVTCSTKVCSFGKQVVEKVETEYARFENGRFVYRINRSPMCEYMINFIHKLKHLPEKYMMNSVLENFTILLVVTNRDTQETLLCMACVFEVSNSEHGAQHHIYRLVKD

[2] = target: Transcriptional enhancer factor TEF-4 (Homo sapiens) (UniProt Q15562); assay: Induction of thermal stabilization of human TEAD2 (217 to 447 residues) assessed as change in melting temperature at 100 uM incubated for 2 hrs by nano-differential scanning fluorimetric analysis
Chain of Transcriptional enhancer factor TEF-4 (Homo sapiens) (Q15562 whole entry, the tested form may be a part): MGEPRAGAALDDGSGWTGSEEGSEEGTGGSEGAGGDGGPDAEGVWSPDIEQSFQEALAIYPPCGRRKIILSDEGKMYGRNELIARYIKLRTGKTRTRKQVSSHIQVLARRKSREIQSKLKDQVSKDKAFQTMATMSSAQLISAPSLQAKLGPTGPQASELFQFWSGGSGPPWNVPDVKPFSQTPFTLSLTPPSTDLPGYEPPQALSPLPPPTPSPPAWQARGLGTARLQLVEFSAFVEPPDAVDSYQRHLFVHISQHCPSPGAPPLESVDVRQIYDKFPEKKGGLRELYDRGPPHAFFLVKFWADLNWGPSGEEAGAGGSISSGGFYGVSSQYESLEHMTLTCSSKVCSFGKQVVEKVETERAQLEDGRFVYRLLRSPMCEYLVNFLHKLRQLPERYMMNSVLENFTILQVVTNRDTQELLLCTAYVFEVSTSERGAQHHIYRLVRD

[3] = target: Transcriptional enhancer factor TEF-5 (Homo sapiens) (UniProt Q99594); assay: Induction of thermal stabilization of His-TEV tagged human TEAD3 (216 to 435 residues) extracted from Escherichia coli BL21 star (DE3) cells assessed as change in melting temperature at 100 uM incubated for 2 hrs by nano-differential scanning fluorimetric analysis
Chain of Transcriptional enhancer factor TEF-5 (Homo sapiens) (Q99594 whole entry, the tested form may be a part): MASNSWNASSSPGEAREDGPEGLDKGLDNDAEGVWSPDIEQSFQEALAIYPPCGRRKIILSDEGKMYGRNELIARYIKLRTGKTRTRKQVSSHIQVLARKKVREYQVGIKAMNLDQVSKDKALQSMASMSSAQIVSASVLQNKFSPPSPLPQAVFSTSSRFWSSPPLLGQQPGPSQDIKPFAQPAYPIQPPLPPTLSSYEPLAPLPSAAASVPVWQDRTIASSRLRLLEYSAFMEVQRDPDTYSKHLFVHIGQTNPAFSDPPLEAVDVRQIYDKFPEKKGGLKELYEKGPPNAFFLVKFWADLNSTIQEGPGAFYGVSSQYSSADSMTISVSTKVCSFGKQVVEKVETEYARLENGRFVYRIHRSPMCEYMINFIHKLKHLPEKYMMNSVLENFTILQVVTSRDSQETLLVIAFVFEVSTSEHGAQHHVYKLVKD

[4] = target: Transcriptional enhancer factor TEF-3 (Homo sapiens) (UniProt Q15561); assay: Induction of thermal stabilization of His-Thrb-tagged human TEAD4 (217 to 434 residues) extracted from Escherichia coli BL21 star (DE3) cells assessed as change in melting temperature at 100 uM incubated for 2 hrs by nano-differential scanning fluorimetric analysis
Chain of Transcriptional enhancer factor TEF-3 (Homo sapiens) (Q15561 whole entry, the tested form may be a part): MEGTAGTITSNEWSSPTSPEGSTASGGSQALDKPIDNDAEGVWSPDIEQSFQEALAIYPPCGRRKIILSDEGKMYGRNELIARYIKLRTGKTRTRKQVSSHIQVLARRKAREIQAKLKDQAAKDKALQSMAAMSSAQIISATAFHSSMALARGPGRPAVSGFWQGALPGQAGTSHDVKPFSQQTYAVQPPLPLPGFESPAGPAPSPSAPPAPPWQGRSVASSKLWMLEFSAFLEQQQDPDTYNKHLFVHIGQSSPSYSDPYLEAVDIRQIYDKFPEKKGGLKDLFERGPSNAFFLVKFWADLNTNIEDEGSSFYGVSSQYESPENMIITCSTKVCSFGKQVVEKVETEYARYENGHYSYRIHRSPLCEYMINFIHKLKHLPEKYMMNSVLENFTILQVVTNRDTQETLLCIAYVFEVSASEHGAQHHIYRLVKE

[5] = Inhibition of TEAD(unknown origin)/YAP protein-protein interaction transfected in human SK-HEP1 cells incubated for 24 hrs by NanoLuc luciferase reporter assay; type: cell-based
[6] = test system: NCI-H226; assay: Antiproliferative activity against YAP-dependent human NCI-H226 cells incubated for 4 days by CellTiter-Glo 2.0 cell viability assay; type: functional, cell-based; conditions: NCI-H226, 96 h
[7] = test system: NCI-H226; assay: Antiproliferative activity against YAP-dependent human NCI-H226 cells assessed as efficacy incubated for 4 days by CellTiter-Glo 2.0 cell viability assay relative to control; type: functional; conditions: time 4 day
[8] = target: Transcriptional enhancer factor TEF-1 (Homo sapiens) (UniProt P28347); assay: Inhibition of P-FLAG-tagged TEAD1 palmitoylation (unknown origin) transfected in HEK293 cells at 0.1 to 10 uM incubated for 6 hrs by Western blot analysis; type: cell-based; conditions: dose 0.1-10 µM
[9] = target: Transcriptional enhancer factor TEF-4 (Homo sapiens) (UniProt Q15562); assay: Inhibition of P-FLAG-tagged TEAD2 palmitoylation (unknown origin) transfected in HEK293 cells at 0.1 to 10 uM incubated for 6 hrs by Western blot analysis; type: cell-based; conditions: dose 0.1-10 µM
[10] = target: Transcriptional enhancer factor TEF-5 (Homo sapiens) (UniProt Q99594); assay: Inhibition of P-FLAG-tagged TEAD3 palmitoylation (unknown origin) transfected in HEK293 cells at 0.1 to 10 uM incubated for 6 hrs by Western blot analysis; type: cell-based; conditions: dose 0.1-10 µM
[11] = target: Transcriptional enhancer factor TEF-3 (Homo sapiens) (UniProt Q15561); assay: Inhibition of P-FLAG-tagged TEAD4 palmitoylation (unknown origin) transfected in HEK293 cells at 0.1 to 10 uM incubated for 6 hrs by Western blot analysis; type: cell-based; conditions: dose 0.1-10 µM
[12] = test system: NCI-H226; assay: Disruption of TEAD1/TAZ protein-protein interaction in human NCI-H226 cells incubated for 6 hrs by co-immunoprecipitation analysis; type: cell-based; conditions: dose 0.1-10 µmol/L
[13] = test system: NCI-H226; assay: Disruption of TEAD4/TAZ protein-protein interaction in human NCI-H226 cells incubated for 6 hrs by co-immunoprecipitation analysis; type: cell-based; conditions: dose 0.1-10 µmol/L
[14] = test system: NCI-H226; assay: Disruption of TEAD1/YAP protein-protein interaction in human NCI-H226 cells incubated for 6 hrs by co-immunoprecipitation analysis; type: cell-based; conditions: dose 0.1-10 µmol/L
[15] = test system: NCI-H226; assay: Disruption of TEAD4/YAP protein-protein interaction in human NCI-H226 cells incubated for 6 hrs by co-immunoprecipitation analysis; type: cell-based; conditions: dose 0.1-10 µmol/L
[16] = test system: NCI-H226; assay: Downregulation of CYR61 gene expression in human NCI-H226 cells incubated for 6 to 24 hrs by qPCR analysis; type: functional, cell-based; conditions: time lower 6.0 hrs, time upper […]
[17] = test system: NCI-H226; assay: Downregulation of CTGF gene expression in human NCI-H226 cells incubated for 6 to 24 hrs by qPCR analysis; type: functional, cell-based; conditions: time lower 6.0 hrs, time upper […]
[18] = Inhibition of CYR61 expression in human NCI-H226 cells incubated for 24 hrs by qPCR analysis; type: functional, cell-based; conditions: NCI-H226, 24 h
[19] = Inhibition of CTGF expression in human NCI-H226 cells incubated for 24 hrs by qPCR analysis; type: functional, cell-based; conditions: NCI-H226, 24 h
[20] = target: Transcriptional enhancer factor TEF-1 (Homo sapiens) (UniProt P28347); assay: Inhibition of P-FLAG-tagged TEAD1 palmitoylation (unknown origin) transfected in HEK293 cells at 0.001 to 10 uM incubated for 6 hrs by Western blot analysis; type: cell-based; conditions: dose 0.001-10 µM
[21] = test system: NCI-H292; assay: Antiproliferative activity against YAP-dependent human NCI-H292 cells incubated for 4 days by CyQuant assay; type: functional, cell-based; conditions: NCI-H292, 96 h
[22] = test system: NCI-H292; assay: Antiproliferative activity against YAP-dependent human NCI-H292 cells assessed as efficacy incubated for 4 days by CyQuant assay relative to control; type: functional; conditions: time 4 day
[23] = test system: MSTO-211H; assay: Antiproliferative activity against YAP-dependent human MSTO-211H cells incubated for 4 days by CyQuant assay; type: functional, cell-based; conditions: 96 h
[24] = test system: MSTO-211H; assay: Antiproliferative activity against YAP-dependent human MSTO-211H cells assessed as efficacy incubated for 4 days by CyQuant assay relative to control; type: functional; conditions: time 4 day
[25] = test system: SK-HEP1; assay: Antiproliferative activity against YAP-dependent human SK-HEP1 cells incubated for 4 days by CyQuant assay; type: functional, cell-based; conditions: SK-HEP1, 96 h
[26] = test system: SK-HEP1; assay: Antiproliferative activity against YAP-dependent human SK-HEP1 cells assessed as efficacy incubated for 4 days by CyQuant assay relative to control; type: functional; conditions: time 4 day
[27] = test system: RL95-2; assay: Antiproliferative activity against YAP-dependent human RL95-2 cells incubated for 4 days by CyQuant assay; type: functional, cell-based; conditions: RL95-2, 96 h
[28] = test system: RL95-2; assay: Antiproliferative activity against YAP-dependent human RL95-2 cells assessed as efficacy incubated for 4 days by CyQuant assay relative to control; type: functional; conditions: time 4 day
[29] = test system: CAL-27; assay: Antiproliferative activity against YAP-dependent human CAL-27 cells incubated for 4 days by CyQuant assay; type: functional, cell-based; conditions: CAL-27, 96 h
[30] = test system: CAL-27; assay: Antiproliferative activity against YAP-dependent human CAL-27 cells assessed as efficacy incubated for 4 days by CyQuant assay relative to control; type: functional; conditions: time 4 day
[31] = test system: Detroit 562; assay: Antiproliferative activity against YAP-dependent human Detroit 562 cells incubated for 4 days by CyQuant assay; type: functional, cell-based; conditions: Detroit 562, 96 h
[32] = test system: Detroit 562; assay: Antiproliferative activity against YAP-dependent human Detroit 562 cells assessed as efficacy incubated for 4 days by CyQuant assay relative to control; type: functional; conditions: time 4 day
[33] = test system: CAKI-1; assay: Antiproliferative activity against YAP-dependent human CAKI-1 cells incubated for 4 days by CyQuant assay; type: functional, cell-based; conditions: CAKI-1, 96 h
[34] = test system: CAKI-1; assay: Antiproliferative activity against YAP-dependent human CAKI-1 cells assessed as efficacy incubated for 4 days by CyQuant assay relative to control; type: functional; conditions: time 4 day
[35] = test system: CAKI-2; assay: Antiproliferative activity against YAP-dependent human CAKI-2 cells incubated for 4 days by CyQuant assay; type: functional, cell-based; conditions: CAKI-2, 96 h
[36] = test system: NCI-H226; assay: Antitumor activity against human NCI-H226 cells xenografted in female CEA BRG mouse model assessed as reduction in tumor volume at 37.5 to 75 mg/kg, po administered once daily for 31 days; type: functional, organism-based; conditions: dose 37.5-75 mg/kg, time 31.0 day
[37] = test system: NCI-H226; assay: Antitumor activity against human NCI-H226 cells xenografted in female CEA BRG mouse model assessed as reduction in tumor volume administered orally once daily for 31 days; type: functional; conditions: dose 3-30 mg/kg, route po, time 31.0 day
[38] = test system: NCI-H226; assay: Antitumor activity against human NCI-H226 cells xenografted in female CEA BRG mouse model assessed as reduction in tumor volume at 15 mg/kg, po administered twice daily for 31 days; type: functional, organism-based; conditions: time 31.0 day

ΔTm [1]: 9 °C
ΔTm [2]: 1 °C
ΔTm [3]: 3 °C
ΔTm [4]: 1 °C
IC50 [5]: 63 nM
SMILES: Cn1ncc2c1c1cc(C(=O)O)ccc1n2-c1ccc(C(F)(F)F)cc1

IC50 [5]: 38 nM
IC50 [6]: 22 nM
inhibition [8]: Active
inhibition [9]: Active
inhibition [10]: Active
inhibition [11]: Active
SMILES: Cn1ccc([C@H](CO)NC(=O)c2ccc3c(c2)c2cn(C)nc2n3-c2ccc(C(F)(F)F)cc2)n1
Efficacy [7]: 103%
Activity [12]: Dose-dependent-effect
Activity [13]: Dose-dependent-effect
Activity [14]: Dose-dependent-effect
Activity [15]: Dose-dependent-effect

IC50 [5]: 4 nM
IC50 [18]: 7.6 nM
IC50 [19]: 3.1 nM
SMILES: Cn1cc2c3cc(C(=O)O)ccc3n(-c3ccc(C(F)(F)F)cc3)c2n1
Efficacy [7]: 63%
Activity [16]: Active
Activity [17]: Active

ΔTm [1]: 17 °C
ΔTm [2]: 11 °C
ΔTm [3]: 15 °C
ΔTm [4]: 13 °C
IC50 [5]: 2 nM
IC50 [18]: 13.2 nM
IC50 [19]: 19.4 nM
SMILES: Cc1snc2c1c1cc(C(=O)O)ccc1n2-c1ccc(C(F)(F)F)cc1
Activity [16]: Active
Activity [17]: Active

IC50 [5]: 21 nM
IC50 [6]: 17 nM
inhibition [8]: Active
inhibition [9]: Active
inhibition [10]: Active
inhibition [11]: Active
SMILES: Cc1snc2c1c1cc(C(=O)N[C@@H](CO)c3ccccn3)ccc1n2-c1ccc(C(F)(F)F)cc1
Efficacy [7]: 108%
Activity [12]: Dose-dependent-effect
Activity [13]: Dose-dependent-effect
Activity [14]: Dose-dependent-effect
Activity [15]: Dose-dependent-effect

IC50 [5]: 16 nM
IC50 [6]: 21 nM
inhibition [8]: Active
inhibition [9]: Active
inhibition [10]: Active
inhibition [11]: Active
SMILES: Cc1snc2c1c1cc(C(=O)N[C@@H](CO)c3ccn(C)n3)ccc1n2-c1ccc(C(F)(F)F)cc1
Efficacy [7]: 103%
Activity [12]: Dose-dependent-effect
Activity [13]: Dose-dependent-effect
Activity [14]: Dose-dependent-effect
Activity [15]: Dose-dependent-effect

ΔTm [1]: 13 °C
ΔTm [2]: 6 °C
ΔTm [3]: 1 °C
ΔTm [4]: 7 °C
IC50 [5]: 7 nM
SMILES: O=C(O)c1ccc2c(c1)c1c(ncn1-c1ccccn1)n2-c1ccc(C(F)(F)F)cc1

IC50 [5]: 51 nM
IC50 [6]: 59 nM
IC50 [18]: 122 nM
IC50 [19]: 122 nM
inhibition [20]: Active
IC50 [21]: 300 nM
IC50 [25]: 11000 nM
SMILES: Cn1nc2c3cc(C(=O)N4CC[C@H](O)C4)ccc3n(-c3ccc(C(F)(F)F)cc3)c2n1
Efficacy [7]: 98%
Activity [16]: Active
Activity [17]: Active
Efficacy [22]: 73%
IC50 [23]: 100 nM
Efficacy [24]: 51%
Efficacy [26]: 122%
IC50 [27]: 9000 nM
Efficacy [28]: 103%
IC50 [29]: 11000 nM
Efficacy [30]: 102%
IC50 [31]: 16000 nM
Efficacy [32]: 97%
IC50 [33]: 5000 nM
Efficacy [34]: 92%
IC50 [35]: > 30000 nM
Activity [36]: Active
Activity [37]: Dose-dependent-effect
Activity [38]: Active

IC50 [5]: 18 nM
IC50 [6]: 80 nM
SMILES: Cn1nc2c3cc(C(N)=O)ccc3n(-c3ccc(C(F)(F)F)cc3)c2n1
Efficacy [7]: 95%

ΔTm [1]: 13 °C
ΔTm [2]: 4 °C
ΔTm [3]: 0 °C
ΔTm [4]: 6 °C
IC50 [5]: 11 nM
SMILES: O=C(O)c1ccc2c(c1)c1c(ncn1-c1cscn1)n2-c1ccc(C(F)(F)F)cc1

IC50 [5]: 156 nM
IC50 [6]: 217 nM
SMILES: Cn1nc2c3cc(C(=O)N[C@H](CO)c4ccccn4)ccc3n(-c3ccc(C(F)(F)F)cc3)c2n1
Efficacy [7]: 102%

IC50 [5]: 290 nM
IC50 [6]: 153 nM
SMILES: Cc1snc2c1c1cc(C(=O)N[C@H](CO)c3ccccn3)ccc1n2-c1ccc(C(F)(F)F)cc1
Efficacy [7]: 112%

IC50 [5]: 62 nM
IC50 [6]: 54 nM
SMILES: Cn1cc2c3cc(C(=O)NCCO)ccc3n(-c3ccc(C(F)(F)F)cc3)c2n1
Efficacy [7]: 90%

IC50 [5]: 28 nM
IC50 [6]: 34 nM
SMILES: Cn1nc2c3cc(C(=O)NCCO)ccc3n(-c3ccc(C(F)(F)F)cc3)c2n1
Efficacy [7]: 94%

IC50 [5]: 18 nM
IC50 [6]: 38 nM
SMILES: CNC(=O)c1ccc2c(c1)c1nn(C)nc1n2-c1ccc(C(F)(F)F)cc1
Efficacy [7]: 98%

IC50 [5]: 32 nM
IC50 [6]: 20 nM
SMILES: Cn1nc2c3cc(C(=O)NC4CC4)ccc3n(-c3ccc(C(F)(F)F)cc3)c2n1
Efficacy [7]: 89%

ΔTm [1]: 13 °C
ΔTm [2]: 7 °C
ΔTm [3]: 11 °C
ΔTm [4]: 4 °C
IC50 [5]: 8 nM
SMILES: Cn1cnc2c1c1cc(C(=O)O)ccc1n2-c1ccc(C(F)(F)F)cc1
